The record followed here is patent US20220395477A1, “COMPOSITIONS AND METHODS FOR PREVENTING AND TREATING RESPIRATORY SYNCYTIAL VIRUS INFECTION” (priority 2019, published 2022).

The assay has as its system RSV Line 19 (rA2-KL19F). Briefly: RFP (mKate2)-expressing RSV infection of A549 cells pretreated with SCFAs 24 hours before infection (RFP/DAPI). The format is cell-based, Human Respiratory Syncytial Virus. The following applies: single SCFA 100 to 300 μM, 3 MOI, imaged after 48 hours. The method, then:
Images taken after 48 Hrs.
Cells were infected at 3 MOI of RSV Line 19 (rA2-KL19F) expressing a red fluorescent marker, mKate2, as well as the F protein from the mucogenic clinical strain, and media was replaced with the appropriate SCFAs that was previously used in cultured. After 48 hours, the cells were stained with NucBlue (life technologies) and imaged using a Keyence fluorescence microscope (FIGS. 4A-4B).

In the case of `CC(=O)O` [acetate], the “expression of RFP-MKate (RFP/DAPI)” value was “reduces the expression of RFP-MKate”.

Consider `CCC(=O)O` [propionate], for which the “expression of RFP-MKate (RFP/DAPI)” value was “reduces the expression of RFP-MKate”.
